Source: PMC6418270, “The pharmacological and functional characterization of the serotonergic system in Anopheles gambiae and Aedes aegypti: influences on flight and blood-feeding behavior” (Scientific Reports, 2019)
pEC50: −log10 of the molar value. Where a name gives a salt, the structure may show the parent alone.

Assays:
AGAP002229 [1] = target: T1, AGAP002229 (Anopheles gambiae, UniProt A7UR33); experiment: Fluo-4 calcium assay in CRE-luc2P HEK-293 cells expressing AGAP002229; type: cell-based; conditions: for Ability to inhibit activity in a dose-response manner: antagonist test, receptor not given, taken as both 5-HT2 cell lines; for Response to biogenic amines: 10^−4 M; for Response to biogenic amines / Receptor activation by agonist: AGAP002229
Protocol: A week post-transfection, selective pressure was applied with […] of G418 antibiotic to generate stable lines.
1 × 10^6 cells per well were seeded into a 96-well black all-clear bottom plate and incubated overnight in 10% FBS/90% DMEM at 37 °C with an atmosphere of 5% CO2. The following day, 2X Fluo-4 Direct calcium dye (Molecular Devices LLC, San Jose, CA) was added to each well and incubated in the same conditions for 45 minutes before the assay was completed. At this time, serial dilutions of the test compounds were prepared in a 96-well clear flat bottom plate. […] Fluorescence measurements continued to be recorded for a total of 120 seconds at 2-second intervals. When testing antagonists, cells were treated with the compound prior to determination of fluorescence levels.
(§1) Luminescence and calcium assay data were normalized and fitted with a non-linear least squares regression to generate dose-response curves, EC50 and IC50 values. Unpaired t-tests or Dunnett’s multiple comparisons test were performed accordingly to compare EC50 or IC50 values. Locomotion was measured based on the distance required for flight recovery. Data were compared with the Kruskal-Wallis and Dunnett’s multiple comparison tests after the Kolmogorov-Smirnov normality test was conducted. In the blood-feeding experiments, the percentage of blood-fed mosquitoes was calculated for each treatment group. For each biological replicate, the treatment groups were normalized with respect to the untreated group. Dunnett’s multiple comparison tests were utilized to determine statistical difference between normalized data. Size of bloodmeals were compared with an unpaired t-test or Mann-Whitney test after normality was evaluated with the Kolmogorov-Smirnov test. All analyses were performed utilizing GraphPad Prism version 7.00 for Mac OS X, GraphPad Software, La Jolla California USA, www.graphpad.com.

AGAP002232 [2] = target: T2, AGAP002232 (Anopheles gambiae, UniProt A0A1S4GEY1); experiment: Fluo-4 calcium assay in CRE-luc2P HEK-293 cells expressing AGAP002232; type: cell-based; conditions: for Ability to inhibit activity in a dose-response manner: antagonist test, receptor not given, taken as both 5-HT2 cell lines; for Response to biogenic amines: 10^−4 M, AGAP002232
Protocol: The GloResponse™ CRE-luc2P human embryonic kidney (HEK-293) reporter cells were incubated at 37 °C with an atmosphere of 5% CO2, and maintained in Dulbecco’s Modified Eagle Medium (DMEM) supplemented with 10% fetal bovine serum (FBS) and […] hygromycin B. Transfection of the HEK-293 cells with 1 μg of plasmid DNA was performed with Amaxa Nucleofector™ technology (Lonza, Basel, Switzerland) as per manufacturer’s instructions. A week post-transfection, selective pressure was applied with […] of G418 antibiotic to generate stable lines.
1 × 10^6 cells per well were seeded into a 96-well black all-clear bottom plate and incubated overnight in 10% FBS/90% DMEM at 37 °C with an atmosphere of 5% CO2. The following day, 2X Fluo-4 Direct calcium dye (Molecular Devices LLC, San Jose, CA) was added to each well and incubated in the same conditions for 45 minutes before the assay was completed. At this time, serial dilutions of the test compounds were prepared in a 96-well clear flat bottom plate. Fluorescence levels were determined with a FlexStation3 microplate reader, with excitation and emission wavelengths set to 485 and 525 nm, respectively (Molecular Devices LLC). Basal fluorescence levels were measured for 17 seconds, at which time, 25 μl of the agonist compound was added. Fluorescence measurements continued to be recorded for a total of 120 seconds at 2-second intervals. When testing antagonists, cells were treated with the compound prior to determination of fluorescence levels.
as §1

5-HT7 receptors = test system: 5-HT7 receptors; design: method as in PMID 11282322; conditions: in humans; cited from earlier work
Ae. aegypti [3] = experiment: Flight performance in flight cylinder after microinjection; type: in vivo, Aedes aegypti
Protocol: (§2) Stock solutions of the compounds were diluted to the appropriate concentrations in 1X phosphate buffer solution (PBS). To account for potential solvent effects, an ultrapure H2O control group was included in every independent experiment. Female mosquitoes were either cold- or CO2-anesthetized. A Nanoject II Auto-Nanoliter Injector (Drummond Scientific Company, Broomall, PA) was then utilized to microinject 69 nL of compound into the spiracle.
A flight cylinder was assembled as described previously. The polyacrylamide sheet was coated with Tangle-Trap Sticky Coating (The Scotts Company LLC, Marysville, OH) and allowed to sit overnight before insertion into the flight cylinder. Adult mosquitoes were anesthetized on a CO2 pad and microinjected with the compound or ultrapure H2O control. Post-injection, they were permitted to recover in a fly vial for 30 minutes before being ejected into the flight cylinder. After each trial, the distance between the top of the cylinder and the trapped mosquito was recorded. Mosquitoes captured in the fly vial at the bottom of the cylinder were considered to be incapable of flying and a distance of 91.5 cm was recorded.
as §1

AGAP002229 [4] = target: T1, AGAP002229; experiment: GloResponse CRE-luc2P cyclic AMP reporter (luminescence) assay, AGAP002229; type: cell-based; conditions: 10^−4 M
Protocol: (§3) The reporter construct in the HEK-293 cells regulated the transcription of the luciferase gene in response to cAMP levels, while the Rluc-Neo^r construct in the pF9a expression plasmid served as a normalizing agent. Cells suspended in 1% FBS/99% DMEM without phenol red were seeded in white 96-well plates at a density of 6.6 × 10^5 per well, and immediately treated with varying concentrations of compounds. Following a 4-hour incubation at 37 °C with an atmosphere of 5% CO2, the cells were prepared for a Dual-Glo luciferase assay according to the manufacturer’s instructions (Promega Corporation, Madison, WI). The luminescence units were measured on the SpectraMax L 96 microplate luminometer (Molecular Devices, Sunnyvale, CA) and normalized to the cell number.

AGAP002232 [5] = target: T2, AGAP002232; experiment: GloResponse CRE-luc2P cyclic AMP reporter (luminescence) assay, AGAP002232; type: cell-based; conditions: 10^−4 M
Protocol: as §3

Ae. aegypti [6] = experiment: Blood-feeding assay (artificial membrane feeder) after microinjection; type: in vivo, Aedes aegypti; conditions: 10 mM microinjected
Protocol: as §2
Seven to ten-day old female mosquitoes were treated with compound or appropriate control through microinjection post cold-anesthetization or ingestion. Two mL of human O^+ blood (BioChemed Services, Winchester, VA) was utilized to cover the concave surface of an inverted baby food jar. Hog intestine sealed the opening to simulate the puncturing of a host’s skin. The feeding membrane was placed on the top of a mosquito cage, and hot water was poured into the jar to warm the blood. After a 45-minute feed, the mosquitoes were immediately preserved at −20 °C. The blood meal size was determined for each mosquito via hemoglobinometry as previously described.
as §1

An. gambiae = conditions: cited from earlier work
Ae. aegypti [7] = experiment: Blood-feeding assay after ingestion of compound in 10% sucrose; type: in vivo, Aedes aegypti
Protocol: Sucrose solution was withheld from newly-emerged mosquitoes for two days. On the third day, the mosquitoes were presented with a cotton ball saturated with 400 μL of a 10% sucrose solution laced with compound or the respective control for five days. The cotton ball was exchanged every other day with a fresh one. Seven to ten-day old female mosquitoes were treated with compound or appropriate control through microinjection post cold-anesthetization or ingestion. Two mL of human O^+ blood (BioChemed Services, Winchester, VA) was utilized to cover the concave surface of an inverted baby food jar. Hog intestine sealed the opening to simulate the puncturing of a host’s skin. The feeding membrane was placed on the top of a mosquito cage, and hot water was poured into the jar to warm the blood. After a 45-minute feed, the mosquitoes were immediately preserved at −20 °C. The blood meal size was determined for each mosquito via hemoglobinometry as previously described. Luminescence and calcium assay data were normalized and fitted with a non-linear least squares regression to generate dose-response curves, EC50 and IC50 values. Unpaired t-tests or Dunnett’s multiple comparisons test were performed accordingly to compare EC50 or IC50 values. Locomotion was measured based on the distance required for flight recovery. Data were compared with the Kruskal-Wallis and Dunnett’s multiple comparison tests after the Kolmogorov-Smirnov normality test was conducted. In the blood-feeding experiments, the percentage of blood-fed mosquitoes was calculated for each treatment group. For each biological replicate, the treatment groups were normalized with respect to the untreated group. Dunnett’s multiple comparison tests were utilized to determine statistical difference between normalized data. Size of bloodmeals were compared with an unpaired t-test or Mann-Whitney test after normality was evaluated with the Kolmogorov-Smirnov test. All analyses were performed utilizing GraphPad Prism version 7.00 for Mac OS X, GraphPad Software, La Jolla California USA, www.graphpad.com.

Ae. aegypti [8] = experiment: Mortality on 10% sucrose solution containing compound; type: in vivo; conditions: after a three-day period
Protocol: The serotonergic system was manipulated to identify its role in blood-feeding behavior. To allow for the depletion of 5-HT, mosquitoes were fed a 10% sucrose solution containing varying concentrations (1, 5, 10, 25, and 60 mg/mL) of PCPA ethyl ester, a compound that […] tryptophan hydroxylase, a crucial enzyme in 5-HT synthesis. At the two highest concentrations (25 and 60 mg/mL), there was a 100% mortality rate after a three-day period. […] In comparison to the control group, which ingested an average volume of 1.87μL of blood, the average blood meal size for 1 and 5 mg/mL PCPA-treated groups was 1.84 ± 0.16 μL (p = 0.89) and 2.33 ± 0.25 μL (p = 0.12), respectively.
Sucrose solution was withheld from newly-emerged mosquitoes for two days. On the third day, the mosquitoes were presented with a cotton ball saturated with 400 μL of a 10% sucrose solution laced with compound or the respective control for five days. The cotton ball was exchanged every other day with a fresh one.

T2 sequence (A0A1S4GEY1 entry or part of it): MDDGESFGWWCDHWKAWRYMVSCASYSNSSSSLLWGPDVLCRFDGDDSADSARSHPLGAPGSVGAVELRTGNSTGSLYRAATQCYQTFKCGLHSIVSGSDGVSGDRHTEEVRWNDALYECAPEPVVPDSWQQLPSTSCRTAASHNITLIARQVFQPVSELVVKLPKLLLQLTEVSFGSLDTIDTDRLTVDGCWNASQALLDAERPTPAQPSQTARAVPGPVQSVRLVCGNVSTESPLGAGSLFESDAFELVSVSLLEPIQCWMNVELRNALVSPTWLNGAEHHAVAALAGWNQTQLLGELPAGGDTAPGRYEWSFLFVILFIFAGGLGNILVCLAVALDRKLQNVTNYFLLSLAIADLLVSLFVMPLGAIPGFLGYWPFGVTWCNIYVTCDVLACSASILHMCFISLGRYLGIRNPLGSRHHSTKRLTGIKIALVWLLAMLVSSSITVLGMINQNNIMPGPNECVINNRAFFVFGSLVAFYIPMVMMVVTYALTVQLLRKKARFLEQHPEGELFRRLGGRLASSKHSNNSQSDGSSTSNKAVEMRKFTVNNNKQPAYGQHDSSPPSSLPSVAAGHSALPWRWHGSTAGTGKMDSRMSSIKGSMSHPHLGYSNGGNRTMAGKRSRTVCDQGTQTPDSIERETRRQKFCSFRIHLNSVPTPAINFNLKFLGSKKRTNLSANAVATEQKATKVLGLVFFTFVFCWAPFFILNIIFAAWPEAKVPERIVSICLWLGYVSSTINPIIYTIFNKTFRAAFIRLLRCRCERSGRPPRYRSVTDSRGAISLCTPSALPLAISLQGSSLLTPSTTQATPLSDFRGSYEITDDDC
T1 sequence (A7UR33 entry or part of it): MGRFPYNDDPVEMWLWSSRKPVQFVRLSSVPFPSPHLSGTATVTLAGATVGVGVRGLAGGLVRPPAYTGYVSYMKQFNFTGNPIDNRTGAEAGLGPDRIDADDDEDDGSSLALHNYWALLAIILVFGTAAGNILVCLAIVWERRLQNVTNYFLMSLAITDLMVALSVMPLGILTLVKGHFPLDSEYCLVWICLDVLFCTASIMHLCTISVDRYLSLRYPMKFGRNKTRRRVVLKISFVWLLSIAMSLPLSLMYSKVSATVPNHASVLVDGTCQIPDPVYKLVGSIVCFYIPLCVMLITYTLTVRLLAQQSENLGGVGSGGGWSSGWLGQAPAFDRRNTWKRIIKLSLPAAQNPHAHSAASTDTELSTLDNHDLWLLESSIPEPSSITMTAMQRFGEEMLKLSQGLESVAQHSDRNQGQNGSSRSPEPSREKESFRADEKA

O=C(CCCN1CCC2(CC1)C(=O)NCN2c1ccccc1)c1ccc(F)cc1 [spiperone]
Ability to inhibit activity in a dose-response manner (AGAP002229 [1]): only the former two exhibited the ability to inhibit activity | Ability to inhibit activity in a dose-response manner (AGAP002232 [2]): only the former two exhibited the ability to inhibit activity

NCCc1c[nH]c2ccc(C(N)=O)cc12 [5-carboxamidotryptamine]
Affinity for 5-HT7 receptors (5-HT7 receptors): strong affinity

NCCc1c[nH]c2ccc(O)cc12 [5-HT, serotonin hydrochloride]
Effect on flight compared to H2O alone (Ae. aegypti [3]; 10 mM): did not affect flight | Average distance in flight cylinder (Ae. aegypti [3]; 10 mM, Fig. 5c): 25.1 cm | Ability to fly (Ae. aegypti [3]; concentrations greater than 10 mM): completely inhibited the mosquitoes’ ability to fly | pEC50 (AGAP002229 [1]): 7.06 | Receptor response (cyclic AMP) under Gαs and Gαi/o conditions (AGAP002229 [4]): no measurable responses | Receptor response (cyclic AMP) under Gαs and Gαi/o conditions (AGAP002232 [5]): no measurable responses | pEC50 (AGAP002232 [2]): 5.72 | Successfully blood-fed, normalized to the untreated group (Ae. aegypti [6]): approximately 80%

CN(C)CCCC1(c2ccc(F)cc2)OCc2cc(C#N)ccc21 (stereo not shown) [citalopram]
Flight after microinjection into the thorax (An. gambiae): severe flight defects and a prolonged time for flight recovery

CCCN(CCC)C1CCc2cccc(O)c2C1 (stereo not shown) [8-OH-DPAT]
Affinity for 5-HT7 receptors (5-HT7 receptors): strong affinity

NCCc1ccc(O)cc1 [tyramine, tyramine hydrochloride]
Response to biogenic amines (AGAP002229 [1]): indiscernible from background levels | Response to biogenic amines (AGAP002232 [2]): indiscernible from background levels

NCCc1c[nH]cn1 [histamine]
Response to biogenic amines (AGAP002229 [1]): indiscernible from background levels | Response to biogenic amines (AGAP002232 [2]): indiscernible from background levels

CCOC(=O)C(N)Cc1ccc(Cl)cc1.Cl (racemic) [PCPA ethyl ester, 4-chloro-DL-chlorophenylalanine ethyl ester hydrochloride]
Average blood meal size (Ae. aegypti [7]; 1 mg/mL in 10% sucrose): 1.84 ± 0.16 µL | Feeding success or blood meal volume versus control (Ae. aegypti [7]; 1 mg/mL in 10% sucrose): did not demonstrate any significant difference | Average blood meal size (Ae. aegypti [7]; 5 mg/mL in 10% sucrose): 2.33 ± 0.25 µL | Feeding success or blood meal volume versus control (Ae. aegypti [7]; 5 mg/mL in 10% sucrose): did not demonstrate any significant difference | Average blood meal size (Ae. aegypti [7]; 10 mg/mL in 10% sucrose): 3.53 ± 0.16 µL | Blood feeding success rate (Ae. aegypti [7]; 10 mg/mL in 10% sucrose): 73.2% | Mortality rate (Ae. aegypti [8]; 25 mg/mL in 10% sucrose): 100% | Mortality rate (Ae. aegypti [8]; 60 mg/mL in 10% sucrose): 100%

COc1ccc2[nH]cc(CCN)c2c1 [5-MT, 5-methoxytryptamine]
pEC50 (AGAP002229 [1]): 5.97 | Receptor activation by agonist (AGAP002229 [1]): able to activate

NCCc1c[nH]c2ccccc12 [tryptamine, tryptamine hydrochloride]
pEC50 (AGAP002229 [1]): 5.56 | Receptor activation by agonist (AGAP002229 [1]): able to activate

NCCc1ccc(O)c(O)c1 [dopamine, dopamine hydrochloride]
Response to biogenic amines (AGAP002229 [1]): indiscernible from background levels | Response to biogenic amines (AGAP002232 [2]): indiscernible from background levels

COC(=O)[C@@H]1[C@H]2C[C@H]3c4[nH]c5ccccc5c4CCN3C[C@@H]2CC[C@@H]1O [yohimbine, yohimbine hydrochloride]
Ability to inhibit activity in a dose-response manner (AGAP002229 [1]): only the former two exhibited the ability to inhibit activity | Ability to inhibit activity in a dose-response manner (AGAP002232 [2]): only the former two exhibited the ability to inhibit activity

CN1CCN2c3ccccc3Cc3ccccc3C2C1 (stereo not shown) [mianserin, mianserin hydrochloride]
Ability to inhibit activity in a dose-response manner (AGAP002229 [1]): only the former two exhibited the ability to inhibit activity | Ability to inhibit activity in a dose-response manner (AGAP002232 [2]): only the former two exhibited the ability to inhibit activity

NCC(O)c1ccc(O)cc1 (racemic) [octopamine, (±)-octopamine hydrochloride]
Response to biogenic amines (AGAP002229 [1]): indiscernible from background levels | Response to biogenic amines (AGAP002232 [2]): indiscernible from background levels
